Reference: PubChem BioAssay (NCI)
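Tested at 5 concentrations; 48 h exposure; 96-well plates; endpoints linearly interpolated, else capped at highest concentration. Here, GI50 denotes the concentration required for 50% inhibition of growth. The concentration for full growth arrest is given as TGI.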

How the values were obtained:
Experiment in all cases: NCI tumour cell line growth inhibition, 48 h
[1] = tested on: COLO 205 colon
[2] = tested on: DLD-1 colon
[3] = tested on: HCT-15 colon
[4] = tested on: HL-60(TB) leukemia
[5] = tested on: M19-MEL melanoma
[6] = tested on: MALME-3M melanoma
[7] = tested on: SF-295 CNS
[8] = tested on: TK-10 renal
[9] = tested on: DU-145 prostate
[10] = tested on: PC-3 prostate

SMILES: COc1cc(C2[C@H]3C(=O)N(c4ccc(Cc5ccc(N6C(=O)[C@@H]7ON(c8ccccc8)C(c8cc(OC)c(OC)c(OC)c8)[C@@H]7C6=O)cc5)cc4)C(=O)[C@H]3ON2c2ccccc2)cc(OC)c1OC (some centres undefined)
- TGI [1]: > 100 µM
- TGI [2]: > 100 µM
- TGI [3]: > 100 µM
- TGI [4]: > 100 µM
- TGI [5]: > 100 µM
- TGI [6]: > 100 µM
- TGI [7]: > 100 µM
- TGI [8]: > 100 µM

SMILES: O=C1c2cnccc2Cc2cccc3c2N1c1ccccc1S3
- TGI [1]: 59.2 µM
- TGI [2]: > 100 µM
- TGI [3]: > 100 µM
- TGI [4]: 67.1 µM
- TGI [5]: 86.7 µM
- TGI [6]: 62.4 µM
- TGI [7]: 63.2 µM

SMILES: C(=C1\CCC/C(=C/c2ccccc2)C1=NNc1ccccc1)/c1ccccc1
- TGI [1]: > 100 µM
- TGI [2]: > 100 µM
- TGI [3]: > 100 µM
- TGI [4]: > 100 µM
- TGI [5]: > 100 µM
- TGI [6]: > 100 µM
- TGI [7]: > 100 µM
- TGI [8]: > 100 µM

SMILES: COc1ccc(-c2cc(-c3ccccc3)c(C#N)c(=O)[nH]2)cc1
- TGI [1]: > 100 µM
- TGI [2]: > 100 µM
- TGI [3]: > 100 µM
- TGI [4]: > 100 µM
- TGI [5]: > 100 µM
- TGI [6]: > 100 µM
- TGI [7]: > 100 µM
- TGI [8]: > 100 µM

SMILES: CC1(C)CCc2cc3c(cc2O1)OC(C)(C)C1c2c(ccc4c2CCC(C)(C)O4)OC31 (centres undefined)
- TGI [1]: > 100 µM
- TGI [2]: > 100 µM
- TGI [3]: > 100 µM
- TGI [4]: > 100 µM
- TGI [5]: > 100 µM
- TGI [7]: > 100 µM

SMILES: CC12C=CC(C)(O1)C1C2c2ccccc2S1(=O)=O (centres undefined)
- GI50 [1]: > 100 µM
- TGI [1]: > 100 µM
- GI50 [9]: 50.3 µM
- TGI [9]: > 100 µM
- GI50 [3]: 38.4 µM
- TGI [3]: > 100 µM
- GI50 [4]: > 100 µM
- TGI [4]: > 100 µM
- GI50 [6]: 50.3 µM
- TGI [6]: > 100 µM
- GI50 [10]: 66.8 µM
- TGI [10]: > 100 µM
- GI50 [7]: > 100 µM
- TGI [7]: > 100 µM
- GI50 [8]: > 100 µM
- TGI [8]: > 100 µM

SMILES: Cn1cc2ccccc2c1-c1nc(F)nc(Oc2ccc3c(c2)CC[C@@H]2C3CC[C@]3(C)C(O)CCC23)n1 (some centres undefined)
- TGI [1]: 44.2 µM
- TGI [2]: 30.9 µM
- TGI [3]: 33.4 µM
- TGI [5]: 47.8 µM
- TGI [6]: 39.9 µM
- TGI [7]: 30.2 µM
- TGI [8]: 31.7 µM

SMILES: COC(=O)[C@]12CC[C@@H](C)[C@H](C)[C@@H]1C1=CC[C@@H]3[C@@]4(C)C(c5ncon5)=C[C@@](C)(CO)C4=CC[C@@]3(C)[C@]1(C)CC2
- GI50 [1]: 1.96 µM
- TGI [1]: 4.15 µM
- GI50 [9]: 1.77 µM
- TGI [9]: 3.26 µM
- GI50 [3]: 1.91 µM
- TGI [3]: 4.08 µM
- GI50 [4]: 2.13 µM
- TGI [4]: 5.04 µM
- GI50 [6]: 1.67 µM
- TGI [6]: 3.55 µM
- GI50 [10]: 2.1 µM
- TGI [10]: 4.7 µM
- GI50 [7]: 2.11 µM
- TGI [7]: 5.03 µM
- GI50 [8]: 2.17 µM
- TGI [8]: 5.36 µM

SMILES: CSc1nc2c(nc(N)n2C2OCC(O)C(O)C2O)c(=O)[nH]1 (centres undefined)
- TGI [1]: > 100 µM
- TGI [2]: > 100 µM
- TGI [4]: > 100 µM
- TGI [5]: > 100 µM
- TGI [6]: > 100 µM
- TGI [7]: > 100 µM
- TGI [8]: > 100 µM

SMILES: c1ccc(Cn2cc3c(c2)-c2oncc2CC3)cc1
- GI50 [1]: 0.467 µM
- TGI [1]: 2.55 µM
- GI50 [9]: 0.977 µM
- TGI [9]: 12.8 µM
- GI50 [3]: 0.863 µM
- TGI [3]: > 100 µM
- GI50 [4]: 0.274 µM
- TGI [4]: 0.939 µM
- GI50 [6]: 17.9 µM
- TGI [6]: > 67.8 µM
- GI50 [10]: 1.99 µM
- TGI [10]: > 100 µM
- GI50 [7]: 0.818 µM
- TGI [7]: > 20.6 µM
- GI50 [8]: 2.98 µM
- TGI [8]: > 71.5 µM

SMILES: Cn1c(=O)c(C(c2ccccc2)c2c(O)c3ccccc3n(C)c2=O)c(O)c2ccccc21
- TGI [1]: > 100 µM
- TGI [2]: > 100 µM
- TGI [4]: > 100 µM
- TGI [5]: > 100 µM
- TGI [6]: > 100 µM
- TGI [7]: > 100 µM
- TGI [8]: > 100 µM

SMILES: COc1cc(C2c3cc4c(cc3C3OC(=O)C2C3CO)OCO4)cc(OC)c1OC (centres undefined)
- GI50 [1]: 0.0188 µM
- TGI [1]: 0.0372 µM
- GI50 [9]: 0.0285 µM
- GI50 [3]: 0.0272 µM
- TGI [3]: > 100 µM
- GI50 [4]: 0.0207 µM
- TGI [4]: 0.0748 µM
- GI50 [6]: 0.0262 µM
- TGI [6]: > 100 µM
- GI50 [10]: 0.0285 µM
- TGI [10]: > 100 µM
- GI50 [7]: 0.0182 µM
- TGI [7]: 0.166 µM
- GI50 [8]: 0.0535 µM
- TGI [8]: > 100 µM

SMILES: NC1=CC(=O)C(=O)c2cccnc21
- GI50 [1]: 16.6 µM
- TGI [1]: 30.1 µM
- GI50 [9]: 4.94 µM
- TGI [9]: 16.3 µM
- GI50 [3]: 5.37 µM
- TGI [3]: 23.4 µM
- GI50 [4]: 2.8 µM
- TGI [4]: 9.08 µM
- GI50 [6]: 2.22 µM
- TGI [6]: 4.63 µM
- GI50 [10]: 11.2 µM
- TGI [10]: 49.2 µM
- GI50 [7]: 2.48 µM
- TGI [7]: 10.3 µM
- GI50 [8]: 29.3 µM
- TGI [8]: 68.2 µM

SMILES: NC(=O)Nc1ccc2ncnc(Nc3ccc(Cl)cc3)c2c1
- GI50 [1]: 30.6 µM
- TGI [1]: > 100 µM
- GI50 [9]: 4.21 µM
- TGI [9]: > 100 µM
- GI50 [3]: 20.1 µM
- TGI [3]: > 100 µM
- GI50 [4]: 25.9 µM
- TGI [4]: 64.4 µM
- GI50 [6]: 28.2 µM
- TGI [6]: > 77.9 µM
- GI50 [10]: 19.4 µM
- TGI [10]: > 96.2 µM
- GI50 [7]: 19.2 µM
- TGI [7]: > 67.4 µM
- GI50 [8]: 1.72 µM
- TGI [8]: 23.4 µM

SMILES: CC(C)O/C=C1\C(=O)C2(SCCS2)[C@H]2CCCC[C@@H]12
- TGI [1]: 33.4 µM
- TGI [2]: > 100 µM
- TGI [3]: > 100 µM
- TGI [4]: 53.4 µM
- TGI [5]: > 100 µM
- TGI [6]: > 100 µM
- TGI [8]: > 100 µM

SMILES: COc1ccc2oc(-c3ccncc3)cc(=O)c2c1
- TGI [1]: > 100 µM
- TGI [2]: > 100 µM
- TGI [3]: > 100 µM
- TGI [4]: > 100 µM
- TGI [6]: > 100 µM
- TGI [7]: > 100 µM

SMILES: O=C(c1ccc(O)cc1)c1ccc(C(=O)c2ccc(O)cc2)cc1
- GI50 [1]: > 100 µM
- TGI [1]: > 100 µM
- GI50 [9]: > 100 µM
- TGI [9]: > 100 µM
- GI50 [3]: > 100 µM
- TGI [3]: > 100 µM
- GI50 [4]: > 100 µM
- TGI [4]: > 100 µM
- GI50 [6]: 35.7 µM
- TGI [6]: > 100 µM
- GI50 [10]: > 100 µM
- TGI [10]: > 100 µM
- GI50 [7]: 6.06 µM
- TGI [7]: > 100 µM
- GI50 [8]: > 100 µM
- TGI [8]: > 100 µM

SMILES: CCN(CC)c1ccc(/C=C/C(=O)c2cccc(NS(C)(=O)=O)c2)cc1
- GI50 [1]: 5.28 µM
- TGI [1]: > 100 µM
- GI50 [9]: 7.2 µM
- TGI [9]: > 100 µM
- GI50 [3]: 3.44 µM
- TGI [3]: > 100 µM
- GI50 [4]: 20 µM
- TGI [4]: > 100 µM
- GI50 [6]: 5.79 µM
- TGI [6]: > 100 µM
- GI50 [10]: 6.35 µM
- TGI [10]: > 100 µM
- GI50 [7]: 5.91 µM
- TGI [7]: > 100 µM
- GI50 [8]: 7.53 µM
- TGI [8]: > 100 µM

SMILES: O=C1OCC2=C1C(c1cccc(F)c1)c1cc3c(cc1N2CCO)OCCO3 (centres undefined)
- GI50 [1]: 0.204 µM
- TGI [1]: 7.43 µM
- GI50 [9]: 0.22 µM
- TGI [9]: > 50 µM
- GI50 [3]: 0.193 µM
- TGI [3]: > 50 µM
- GI50 [4]: 0.137 µM
- TGI [4]: 0.387 µM
- GI50 [6]: 0.305 µM
- TGI [6]: > 50 µM
- GI50 [10]: 0.195 µM
- TGI [10]: > 50 µM
- GI50 [7]: 0.134 µM
- TGI [7]: > 50 µM
- GI50 [8]: 0.363 µM
- TGI [8]: > 50 µM
